# Test results from patent US8192962B2, “Processes for detecting toxic substances” (Daikin Industries, Ltd., priority 2001, dated 2012).
# Tested on: Metabolism protein genes
# Assay: DNA chip mRNA expression in yeast, metabolism protein genes (Table 7)
# Type: cell-based, Saccharomyces cerevisiae S288C
# Experimental: Yeast (Saccharomyces cerevisiae S288C (α SUC2mal mel gap2 CUP1)) were incubated at 25° C. on YPD medium (yeast extract 1%, polypepton 2%, glucose 2%). One of toxic chemical substances was added to the cells at logarithmic growth phase, and the cells were further incubated for two hours. Cells were cultured without any chemical substance in the same condition, and were used as control. Concentrations of the chemical substances were defined to inhibit the growth of the yeast but not lead to death.
# After completion of the incubation, the culture was centrifuged to collect the cells. To the cells, sodium acetate buffer (50 mM sodium acetate, 10 mM EDTA, 1% SDS) was added, and the mixture was shaken at 65° C. for five minutes, followed by returning to room temperature, and obtaining the supernatant, of which the procedures were repeated two times. To the supernatant, ½ amount of a solution of phenol/chloroform was added, and the mixture was centrifuged to give a supernatant, which was added with an equal amount of chloroform, and the mixture was centrifuged to give a supernatant. To the supernatant, an equal amount of isopropanol containing 0.3 M sodium acetate was added, and the mixture was allowed to stand at room temperature for 30 minutes, after which the mixture was centrifuged to give a sediment of the whole RNAs. Seventy % ethanol was added to the sediment, and the mixture was again centrifuged to give a sediment, which was then dried and dissolved in water. mRNA was isolated from the whole RNAs as followings. In view of the fact that a poly A chain is attached to the 3′ terminus of mRNA, a polynucleotide having a poly T structure which was immobilized on the surface of latex beads was used to trap the mRNA, and then the mRNA was washed and eluted with spine column (Oligotex-dT30<Super>mRNA Purification Kit, Takara). Reverse transcription of the mRNA was conducted with a reverse transcriptase (Super Script II Reverse Transcriptase; catalogue No. 18064-014, GibcoBRL) using fluorescence-labeled nucleotides to give cDNAs that were introduced with Cy3-dUTP or Cy5-dUTP during the reverse transcription.
# The labeled cDNAs were dissolved in TE buffer (10mM Tris-HCl/1 mM EDTA, pH8.0), and the solution was dropped on the DNA chip containing the whole genes of yeast (DNA Chip Research Inc. Japan) so that the cDNAs were hybridized on the DNA chip at 65° C. for over 12 hours. The fluoresces intensity of the DNA chip was read with a scanner, and the ratio relative to the fluorescence intensity resulting from the absence of chemical substance was estimated as the following, which is shown in Tables 1 to 9: […]
structure (smiles),measurement,setting,value
"Cl[C@H]1[C@H](Cl)[C@@H](Cl)[C@@H](Cl)[C@H](Cl)[C@H]1Cl [(7), γ-hexachlorocyclohexane]",The level of expressed mRNA in the presence of chemical substance/The level of expressed mRNA in the absence of chemical substance,yeast gene YAL012W,0.6
same,The level of expressed mRNA in the presence of chemical substance/The level of expressed mRNA in the absence of chemical substance,yeast gene YAL038W,0.9
same,level of expressed mRNA in the presence/in the absence of chemical substance,yeast gene YBR003W,1.1
same,level of expressed mRNA in the presence/in the absence of chemical substance,yeast gene YBR011C,1.1
same,level of expressed mRNA in the presence/in the absence of chemical substance,yeast gene YBR020W,0.7
same,The level of expressed mRNA in the presence of chemical substance/The level of expressed mRNA in the absence of chemical substance,yeast gene YBR023C,0.7
same,The level of expressed mRNA in the presence of chemical substance/The level of expressed mRNA in the absence of chemical substance,yeast gene YBR029C,0.4
same,The level of expressed mRNA in the presence of chemical substance/The level of expressed mRNA in the absence of chemical substance,yeast gene YBR183W,1.7
same,The level of expressed mRNA in the presence of chemical substance/The level of expressed mRNA in the absence of chemical substance,yeast gene YBR222C,1.0
same,The level of expressed mRNA in the presence of chemical substance/The level of expressed mRNA in the absence of chemical substance,yeast gene YBR256C,2.1
same,The level of expressed mRNA in the presence of chemical substance/The level of expressed mRNA in the absence of chemical substance,yeast gene YCL009C,1.3
same,The level of expressed mRNA in the presence of chemical substance/The level of expressed mRNA in the absence of chemical substance,yeast gene YCL064C,13.4
same,level of expressed mRNA in the presence/in the absence of chemical substance,yeast gene YCR010C,1.3
same,level of expressed mRNA in the presence/in the absence of chemical substance,yeast gene YCR034W,0.3
same,The level of expressed mRNA in the presence of chemical substance/The level of expressed mRNA in the absence of chemical substance,yeast gene YCR048W,0.9
same,The level of expressed mRNA in the presence of chemical substance/The level of expressed mRNA in the absence of chemical substance,yeast gene YCR098C,1.2
same,The level of expressed mRNA in the presence of chemical substance/The level of expressed mRNA in the absence of chemical substance,yeast gene YDR019C,1.4
same,level of expressed mRNA in the presence/in the absence of chemical substance,yeast gene YDR050C,1.5
same,level of expressed mRNA in the presence/in the absence of chemical substance,yeast gene YDR073W,1.2
same,level of expressed mRNA in the presence/in the absence of chemical substance,yeast gene YDR123C,0.9
same,level of expressed mRNA in the presence/in the absence of chemical substance,yeast gene YDR178W,0.6
same,level of expressed mRNA in the presence/in the absence of chemical substance,yeast gene YDR277C,1.2
same,level of expressed mRNA in the presence/in the absence of chemical substance,yeast gene YDR284C,1.4
same,level of expressed mRNA in the presence/in the absence of chemical substance,yeast gene YDR345C,1.1
same,The level of expressed mRNA in the presence of chemical substance/The level of expressed mRNA in the absence of chemical substance,yeast gene YDR380W,0.5
same,level of expressed mRNA in the presence/in the absence of chemical substance,yeast gene YDR400W,0.6
same,level of expressed mRNA in the presence/in the absence of chemical substance,yeast gene YDR408C,0.8
same,level of expressed mRNA in the presence/in the absence of chemical substance,yeast gene YDR483W,0.8
same,The level of expressed mRNA in the presence of chemical substance/The level of expressed mRNA in the absence of chemical substance,yeast gene YDR497C,0.5
same,The level of expressed mRNA in the presence of chemical substance/The level of expressed mRNA in the absence of chemical substance,yeast gene YDR502C,0.9
same,The level of expressed mRNA in the presence of chemical substance/The level of expressed mRNA in the absence of chemical substance,yeast gene YDR516C,3.9
same,level of expressed mRNA in the presence/in the absence of chemical substance,yeast gene YEL063C,0.7
same,level of expressed mRNA in the presence/in the absence of chemical substance,yeast gene YER015W,1.2
same,The level of expressed mRNA in the presence of chemical substance/The level of expressed mRNA in the absence of chemical substance,yeast gene YER026C,1.6
same,The level of expressed mRNA in the presence of chemical substance/The level of expressed mRNA in the absence of chemical substance,yeast gene YER053C,2.8
same,The level of expressed mRNA in the presence of chemical substance/The level of expressed mRNA in the absence of chemical substance,yeast gene YER069W,1.0
same,level of expressed mRNA in the presence/in the absence of chemical substance,yeast gene YER081W,0.5
same,The level of expressed mRNA in the presence of chemical substance/The level of expressed mRNA in the absence of chemical substance,yeast gene YER096W,0.9
same,level of expressed mRNA in the presence/in the absence of chemical substance,yeast gene YER120W,0.9
same,The level of expressed mRNA in the presence of chemical substance/The level of expressed mRNA in the absence of chemical substance,yeast gene YER178W,1.6
same,level of expressed mRNA in the presence/in the absence of chemical substance,yeast gene YFL011W,0.8
same,The level of expressed mRNA in the presence of chemical substance/The level of expressed mRNA in the absence of chemical substance,yeast gene YFL014W,5.5
same,The level of expressed mRNA in the presence of chemical substance/The level of expressed mRNA in the absence of chemical substance,yeast gene YFL030W,0.6
same,The level of expressed mRNA in the presence of chemical substance/The level of expressed mRNA in the absence of chemical substance,yeast gene YFL031W,0.9
same,The level of expressed mRNA in the presence of chemical substance/The level of expressed mRNA in the absence of chemical substance,yeast gene YFL056C,1.4
same,The level of expressed mRNA in the presence of chemical substance/The level of expressed mRNA in the absence of chemical substance,yeast gene YFL057C,1.8
same,The level of expressed mRNA in the presence of chemical substance/The level of expressed mRNA in the absence of chemical substance,yeast gene YFR047C,2.0
same,level of expressed mRNA in the presence/in the absence of chemical substance,yeast gene YGL012W,0.9
same,The level of expressed mRNA in the presence of chemical substance/The level of expressed mRNA in the absence of chemical substance,yeast gene YGL022W,0.7
same,level of expressed mRNA in the presence/in the absence of chemical substance,yeast gene YGL115W,1.4
same,level of expressed mRNA in the presence/in the absence of chemical substance,yeast gene YGL205W,0.8
same,The level of expressed mRNA in the presence of chemical substance/The level of expressed mRNA in the absence of chemical substance,yeast gene YGL209W,1.0
same,The level of expressed mRNA in the presence of chemical substance/The level of expressed mRNA in the absence of chemical substance,yeast gene YGL248W,1.6
same,The level of expressed mRNA in the presence of chemical substance/The level of expressed mRNA in the absence of chemical substance,yeast gene YGR037C,1.4
same,The level of expressed mRNA in the presence of chemical substance/The level of expressed mRNA in the absence of chemical substance,yeast gene YGR055W,0.6
same,level of expressed mRNA in the presence/in the absence of chemical substance,yeast gene YGR096W,0.9
same,level of expressed mRNA in the presence/in the absence of chemical substance,yeast gene YGR191W,0.7
same,The level of expressed mRNA in the presence of chemical substance/The level of expressed mRNA in the absence of chemical substance,yeast gene YGR194C,2.2
same,level of expressed mRNA in the presence/in the absence of chemical substance,yeast gene YGR204W,0.8
same,The level of expressed mRNA in the presence of chemical substance/The level of expressed mRNA in the absence of chemical substance,yeast gene YGR256W,1.4
same,The level of expressed mRNA in the presence of chemical substance/The level of expressed mRNA in the absence of chemical substance,yeast gene YGR282C,1.1
same,level of expressed mRNA in the presence/in the absence of chemical substance,yeast gene YGR288W,1.4
same,level of expressed mRNA in the presence/in the absence of chemical substance,yeast gene YHR025W,0.8
same,The level of expressed mRNA in the presence of chemical substance/The level of expressed mRNA in the absence of chemical substance,yeast gene YHR111W,1.6
same,level of expressed mRNA in the presence/in the absence of chemical substance,yeast gene YHR123W,0.9
same,The level of expressed mRNA in the presence of chemical substance/The level of expressed mRNA in the absence of chemical substance,yeast gene YHR137W,0.4
same,The level of expressed mRNA in the presence of chemical substance/The level of expressed mRNA in the absence of chemical substance,yeast gene YHR174W,1.6
same,The level of expressed mRNA in the presence of chemical substance/The level of expressed mRNA in the absence of chemical substance,yeast gene YHR176W,1.4
same,level of expressed mRNA in the presence/in the absence of chemical substance,yeast gene YHR210C,1.9
same,level of expressed mRNA in the presence/in the absence of chemical substance,yeast gene YIL006W,0.8
same,The level of expressed mRNA in the presence of chemical substance/The level of expressed mRNA in the absence of chemical substance,yeast gene YIL045W,1.6
same,The level of expressed mRNA in the presence of chemical substance/The level of expressed mRNA in the absence of chemical substance,yeast gene YIL107C,1.6
same,The level of expressed mRNA in the presence of chemical substance/The level of expressed mRNA in the absence of chemical substance,yeast gene YIL154C,1.3
same,The level of expressed mRNA in the presence of chemical substance/The level of expressed mRNA in the absence of chemical substance,yeast gene YIL155C,2.2
same,The level of expressed mRNA in the presence of chemical substance/The level of expressed mRNA in the absence of chemical substance,yeast gene YIL167W,1.2
same,The level of expressed mRNA in the presence of chemical substance/The level of expressed mRNA in the absence of chemical substance,yeast gene YIR034C,0.8
same,The level of expressed mRNA in the presence of chemical substance/The level of expressed mRNA in the absence of chemical substance,yeast gene YIR036C,1.0
same,The level of expressed mRNA in the presence of chemical substance/The level of expressed mRNA in the absence of chemical substance,yeast gene YJL031C,2.3
same,The level of expressed mRNA in the presence of chemical substance/The level of expressed mRNA in the absence of chemical substance,yeast gene YJL068C,1.2
same,The level of expressed mRNA in the presence of chemical substance/The level of expressed mRNA in the absence of chemical substance,yeast gene YJL099W,1.8
same,level of expressed mRNA in the presence/in the absence of chemical substance,yeast gene YJL121C,0.7
same,level of expressed mRNA in the presence/in the absence of chemical substance,yeast gene YJL167W,1.5
same,The level of expressed mRNA in the presence of chemical substance/The level of expressed mRNA in the absence of chemical substance,yeast gene YJL172W,1.0
same,level of expressed mRNA in the presence/in the absence of chemical substance,yeast gene YJL216C,1.5
same,The level of expressed mRNA in the presence of chemical substance/The level of expressed mRNA in the absence of chemical substance,yeast gene YJL219W,0.9
same,level of expressed mRNA in the presence/in the absence of chemical substance,yeast gene YJR077C,0.7
same,The level of expressed mRNA in the presence of chemical substance/The level of expressed mRNA in the absence of chemical substance,yeast gene YJR137C,0.8
same,level of expressed mRNA in the presence/in the absence of chemical substance,yeast gene YJR143C,0.5
same,The level of expressed mRNA in the presence of chemical substance/The level of expressed mRNA in the absence of chemical substance,yeast gene YJR148W,2.1
same,The level of expressed mRNA in the presence of chemical substance/The level of expressed mRNA in the absence of chemical substance,yeast gene YJR155W,1.7
